Source: US6599932B1, “Alpha, beta-unsaturated sulfones for treating proliferative disorders” (Temple University-Of The Commonwealth System of Higher …, priority 2000, dated 2003)

Experiments:
Type in all cases: cell-based
Set-up in all cases: dose or concentration left out as unconfirmed
[1] = system: prostate tumor cell line DU-145; assay: Viability assay, Trypan blue exclusion, prostate tumor cell line DU-145; details: for cytotoxicity: Homo sapiens, DU-145, 96 hours, read-out: percent cell death (% Death), DU145; for percent cell death (% Death), DU145: 96 hours
Protocol: (§1) The effect of the sulfones on normal fibroblasts and on tumor cells of prostate, colon, lung and breast origin was examined utilizing the following cell lines: prostate tumor cell line DU-145; colorectal carcinoma cell line DLD-1; non-small cell lung carcinoma cell line H157; and breast tumor cell line BT-20. BT-20 is an estrogen-unresponsive cell line. NIH/3T3 and HFL are normal murine and human fibroblasts, respectively. BT-20, DLD-1 and H157 were grown in Dulbecco's modified Eagle's medium (DMEM) containing 10% fetal bovine serum supplemented with penicillin and streptomycin. DU145 was cultured in RPMI with 10% fetal bovine serum containing penicillin and streptomycin. NIH3T3 and HFL cells were grown in DMEM containing 10% calf serum supplemented with penicillin and streptomycin. All cell cultures were maintained at 37° C. in a humidified atmosphere of 5% CO2.
(§2) Cells were treated with test compound […] concentration and cell viability was determined after 96 hours by the Trypan blue exclusion method. Activity for each compound is reported as a range of cell induced death (% Death) with the lowest activity in the range of 5-10%.

[2] = system: colorectal carcinoma cell line DLD-1; assay: Viability assay, Trypan blue exclusion, colorectal carcinoma cell line DLD-1; details: for cytotoxicity: Homo sapiens, DLD-1, 96 hours, read-out: percent cell death (% Death), DLD-1; for percent cell death (% Death), DLD-1: 96 hours
Protocol: as §1, §2

[3] = system: non-small cell lung carcinoma cell line H157; assay: Viability assay, Trypan blue exclusion, non-small cell lung carcinoma cell line H157; details: for cytotoxicity: Homo sapiens, NCI-H157, 96 hours, read-out: percent cell death (% Death), H157; for percent cell death (% Death), H157: 96 hours
Protocol: as §1, §2

[4] = system: breast tumor cell line BT-20; assay: Viability assay, Trypan blue exclusion, breast tumor cell line BT-20; details: for cytotoxicity: Homo sapiens, BT-20, 96 hours, read-out: percent cell death (% Death), BT20; for percent cell death (% Death), BT20: 96 hours
Protocol: as §1, §2

Compound: O=S(=O)(/C=C/c1ccccn1)Cc1ccc(F)cc1 [Example 1, (E)-2-Pyridineethenyl-4-fluorobenzylsulfone]
- cytotoxicity [1]: 5 to 10%
- cytotoxicity [2]: 5 to 10%
- cytotoxicity [3]: 5 to 10%
- cytotoxicity [4]: 5 to 10%

Compound: O=S(=O)(/C=C/c1cccnc1)Cc1ccc(F)cc1 [Example 2, (E)-3-Pyridineethenyl-4-fluorobenzylsulfone]
- cytotoxicity [1]: 5 to 10%
- cytotoxicity [2]: 5 to 10%
- cytotoxicity [3]: 5 to 10%
- cytotoxicity [4]: 5 to 10%

Compound: O=S(=O)(/C=C/c1ccccn1)Cc1ccc(Cl)cc1 [Example 4, (E)-2-Pyridineethenyl-4-chlorobenzylsulfone]
- cytotoxicity [1]: 5 to 10%
- cytotoxicity [2]: 5 to 10%
- cytotoxicity [3]: 5 to 10%
- cytotoxicity [4]: 5 to 10%

Compound: O=S(=O)(/C=C/c1cccnc1)Cc1ccc(Cl)cc1 [Example 5, (E)-3-Pyridineethenyl-4-chlorobenzylsulfone]
- cytotoxicity [1]: 5 to 10%
- cytotoxicity [2]: 5 to 10%
- cytotoxicity [3]: 5 to 10%
- cytotoxicity [4]: 5 to 10%

Compound: O=S(=O)(/C=C/c1ccncc1)Cc1ccc(Cl)cc1 [Example 6, (E)4-Pyridineethenyl4-chlorobenzylsulfone]
- cytotoxicity [1]: 5 to 10%
- cytotoxicity [2]: 5 to 10%
- cytotoxicity [3]: 5 to 10%
- cytotoxicity [4]: 5 to 10%

Compound: O=S(=O)(/C=C/c1ccccn1)Cc1ccc(Br)cc1 [Example 7, (E)-2-Pyridineethenyl-4-bromobenzylsulfone]
- cytotoxicity [1]: 5 to 10%
- cytotoxicity [2]: 5 to 10%
- cytotoxicity [3]: 5 to 10%
- cytotoxicity [4]: 5 to 10%

Compound: O=S(=O)(/C=C/c1cccnc1)Cc1ccc(Br)cc1 [Example 8, (E)-3-Pyridineethenyl-4-bromobenzylsulfone]
- cytotoxicity [1]: 10 to 15%
- cytotoxicity [2]: 10 to 15%
- cytotoxicity [3]: 10 to 15%
- cytotoxicity [4]: 10 to 15%

Compound: O=S(=O)(/C=C/c1ccncc1)Cc1ccc(Br)cc1 [Example 9, (E)-4-Pyridineethenyl-4-bromobenzylsulfone]
- cytotoxicity [1]: 5 to 10%
- cytotoxicity [2]: 5 to 10%
- cytotoxicity [3]: 5 to 10%
- cytotoxicity [4]: 5 to 10%

Compound: O=S(=O)(/C=C/c1cccs1)Cc1ccc(F)cc1 [Example 10, (E)-2-Thiopheneethenyl-4-fluorobenzylsulfone]
- cytotoxicity [1]: 5 to 10%
- cytotoxicity [2]: 5 to 10%
- cytotoxicity [3]: 5 to 10%
- cytotoxicity [4]: 5 to 10%

Compound: O=S(=O)(/C=C/c1cccs1)Cc1ccc(Cl)cc1 [Example 11, (E)-2-Thiopheneethenyl4-chlorobenzylsulfone]
- cytotoxicity [1]: 5 to 10%
- cytotoxicity [2]: 5 to 10%
- cytotoxicity [3]: 5 to 10%
- cytotoxicity [4]: 5 to 10%

Compound: O=S(=O)(/C=C/c1cccs1)Cc1ccc(Br)cc1 [Example 12, (E)-2-Thiopheneethenyl-4-bromobenzylsulfone]
- cytotoxicity [1]: 5 to 10%
- cytotoxicity [2]: 5 to 10%
- cytotoxicity [3]: 5 to 10%
- cytotoxicity [4]: 5 to 10%

Compound: O=S(=O)(/C=C/c1cc(Br)cs1)Cc1ccc(F)cc1 [Example 13, (E)-4-Bromo-2-thiopheneethenyl-4-fluorobenzylsulfone]
- cytotoxicity [1]: 5 to 10%
- cytotoxicity [2]: 5 to 10%
- cytotoxicity [3]: 5 to 10%
- cytotoxicity [4]: 5 to 10%

Compound: O=S(=O)(/C=C/c1cc(Br)cs1)Cc1ccc(Cl)cc1 [Example 14, (E)-4-Bromo-2-thiopheneethenyl-4-chlorobenzylsulfone]
- cytotoxicity [1]: 5 to 10%
- cytotoxicity [2]: 5 to 10%
- cytotoxicity [3]: 5 to 10%
- cytotoxicity [4]: 5 to 10%

Compound: O=S(=O)(/C=C/c1cc(Br)cs1)Cc1ccc(Br)cc1 [Example 15, (E)-4-Bromo-2-thiopheneethenyl-4-bromobenzylsulfone]
- cytotoxicity [1]: 5 to 10%
- cytotoxicity [2]: 5 to 10%
- cytotoxicity [3]: 5 to 10%
- cytotoxicity [4]: 5 to 10%

Compound: O=S(=O)(/C=C/c1ccc(Br)s1)Cc1ccc(F)cc1 [Example 16, (E)-5-Bromo-2-thiopheneethenyl-4-fluorobenzylsulfone]
- cytotoxicity [1]: 5 to 10%
- cytotoxicity [2]: 5 to 10%
- cytotoxicity [3]: 5 to 10%
- cytotoxicity [4]: 5 to 10%

Compound: O=S(=O)(/C=C/c1ccc(Br)s1)Cc1ccc(Cl)cc1 [Example 17, (E)-5-Bromo-2-thiopheneethenyl-4-chlorobenzylsulfone]
- cytotoxicity [1]: 5 to 10%
- cytotoxicity [2]: 5 to 10%
- cytotoxicity [3]: 5 to 10%
- cytotoxicity [4]: 5 to 10%

Compound: O=S(=O)(/C=C/c1ccc(Br)s1)Cc1ccc(Br)cc1 [Example 18, (E)-5-Bromo-2-thiopheneethenyl4-bromobenzylsulfone]
- cytotoxicity [1]: 5 to 10%
- cytotoxicity [2]: 5 to 10%
- cytotoxicity [3]: 5 to 10%
- cytotoxicity [4]: 5 to 10%

Compound: O=S(=O)(/C=C/c1ccsc1)Cc1ccc(F)cc1 [Example 22, (E)-3-Thiopheneethenyl-4-fluorobenzylsulfone]
- cytotoxicity [1]: 5 to 10%
- cytotoxicity [2]: 5 to 10%
- cytotoxicity [3]: 5 to 10%
- cytotoxicity [4]: 5 to 10%

Compound: O=S(=O)(/C=C/c1ccsc1)Cc1ccc(Cl)cc1 [Example 23, (E)-3-Thiopheneethenyl-4-chlorobenzylsulfone]
- cytotoxicity [1]: 40 to 50%
- cytotoxicity [2]: 40 to 50%
- cytotoxicity [3]: 40 to 50%
- cytotoxicity [4]: 40 to 50%

Compound: O=S(=O)(/C=C/c1ccsc1)Cc1ccc(Br)cc1 [Example 24, (E)-3-Thiopheneethenyl-4-bromobenzylsulfone]
- cytotoxicity [1]: 40 to 50%
- cytotoxicity [2]: 40 to 50%
- cytotoxicity [3]: 40 to 50%
- cytotoxicity [4]: 40 to 50%

Compound: O=S(=O)(/C=C/c1ccsc1)Cc1ccc(I)cc1 [Example 25, (E)-3-Thiopheneethenyl-4-iodobenzylsulfone]
- cytotoxicity [1]: 10 to 15%
- cytotoxicity [2]: 10 to 15%
- cytotoxicity [3]: 10 to 15%
- cytotoxicity [4]: 10 to 15%

Compound: Cc1ccc(CS(=O)(=O)/C=C/c2ccsc2)cc1 [Example 26, (E)-3-Thiopheneethenyl-4-methylbenzylsulfone]
- cytotoxicity [1]: 5 to 10%
- cytotoxicity [2]: 5 to 10%
- cytotoxicity [3]: 5 to 10%
- cytotoxicity [4]: 5 to 10%

Compound: COc1ccc(CS(=O)(=O)/C=C/c2ccsc2)cc1 [Example 27, (E)-3-Thiopheneethenyl-4-methoxybenzylsulfone]
- cytotoxicity [1]: 50 to 60%
- cytotoxicity [2]: 50 to 60%
- cytotoxicity [3]: 50 to 60%
- cytotoxicity [4]: 50 to 60%

Compound: O=S(=O)(/C=C/c1ccsc1)Cc1ccc(OC(F)(F)F)cc1 [Example 28, (E)-3-Thiopheneethenyl-4-trifloromethoxylbenzylsulfone]
- percent cell death (% Death), DU145 [1]: + ((+)=5-10%)
- percent cell death (% Death), DLD-1 [2]: + ((+)=5-10%)
- percent cell death (% Death), H157 [3]: + ((+)=5-10%)
- percent cell death (% Death), BT20 [4]: + ((+)=5-10%)

Compound: O=S(=O)(/C=C/c1ccsc1)Cc1ccc(Cl)cc1Cl [Example 29, (E)-3-Thiopheneethenyl-2,4-dichlorobenzylsulfone]
- cytotoxicity [1]: 50 to 60%
- cytotoxicity [2]: 50 to 60%
- cytotoxicity [3]: 50 to 60%
- cytotoxicity [4]: 50 to 60%

Compound: O=S(=O)(/C=C/c1ccsc1)Cc1ccc(Cl)c(Cl)c1 [Example 30, (E)-3-Thiopheneethenyl-3,4-dichlorobenzylsulfone]
- cytotoxicity [1]: 5 to 10%
- cytotoxicity [2]: 5 to 10%
- cytotoxicity [3]: 5 to 10%
- cytotoxicity [4]: 5 to 10%

Compound: N#Cc1ccc(CS(=O)(=O)/C=C/c2ccsc2)cc1 [Example 31, (E)-3-Thiopheneethenyl-4-cyanobenzylsulfone]
- cytotoxicity [1]: 5 to 10%
- cytotoxicity [2]: 5 to 10%
- cytotoxicity [3]: 5 to 10%
- cytotoxicity [4]: 5 to 10%

Compound: O=[N+]([O-])c1ccc(CS(=O)(=O)/C=C/c2ccsc2)cc1 [Example 32, (E)-3-Thiopheneethenyl4-nitrobenzylsulfone]
- cytotoxicity [1]: 5 to 10%
- cytotoxicity [2]: 5 to 10%
- cytotoxicity [3]: 5 to 10%
- cytotoxicity [4]: 5 to 10%

Compound: O=S1(=O)C=CC(/C=C/S(=O)(=O)Cc2ccc(F)cc2)=C1 [Example 33, (E)-3-Thiophene-1,1-dioxoethenyl-4-fluorobenzylsulfone]
- percent cell death (% Death), DU145 [1]: + ((+)=5-10%)
- percent cell death (% Death), DLD-1 [2]: + ((+)=5-10%)
- percent cell death (% Death), H157 [3]: + ((+)=5-10%)
- percent cell death (% Death), BT20 [4]: + ((+)=5-10%)

Compound: O=S1(=O)C=CC(/C=C/S(=O)(=O)Cc2ccc(Cl)cc2)=C1 [Example 34, (E)-3-Thiophene-1,1-dioxoethenyl-4chlorobenzylsulfone]
- percent cell death (% Death), DU145 [1]: + ((+)=5-10%)
- percent cell death (% Death), DLD-1 [2]: + ((+)=5-10%)
- percent cell death (% Death), H157 [3]: + ((+)=5-10%)
- percent cell death (% Death), BT20 [4]: + ((+)=5-10%)

Compound: O=S1(=O)C=CC(/C=C/S(=O)(=O)Cc2ccc(Br)cc2)=C1 [Example 35, (E)-3-Thiophene-1,1-dioxoethenyl-4-bromobenzylsulfone]
- percent cell death (% Death), DU145 [1]: + ((+)=5-10%)
- percent cell death (% Death), DLD-1 [2]: + ((+)=5-10%)
- percent cell death (% Death), H157 [3]: + ((+)=5-10%)
- percent cell death (% Death), BT20 [4]: + ((+)=5-10%)

Compound: O=[N+]([O-])c1ccccc1/C=C/S(=O)(=O)Cc1cccc2ccccc12 [Example 71, (E)-2-Nitrostyryl-1-(naphthylmethyl)sulfone]
- cytotoxicity [1]: 40 to 50%
- cytotoxicity [4]: 40 to 50%

Compound: O=[N+]([O-])c1cccc(/C=C/S(=O)(=O)Cc2cccc3ccccc23)c1 [Example 72, (E)-3-Nitrostyryl-1-(naphthylmethyl)sulfone]
- cytotoxicity [1]: 5 to 10%
- cytotoxicity [4]: 5 to 10%
